From ChEMBL document CHEMBL4673290, “Diazaspirononane Nonsaccharide Inhibitors of O-GlcNAcase (OGA) for the Treatment of Neurodegenerative Disorders” (J Med Chem, 2020)

Experiment: Selectivity ratio of IC50 for inhibition of clostridium perfringens OGA to IC50 for Inhibition of human recombinant full-length OGA transcript variant 1 expressed in HEK293T cells
Type: cell-based

SMILES | Ratio IC50
CC(=O)Nc1ncc(CN2CC3(CCN(c4cc(C)nc5ncnn45)C3)C2)s1 | 100
CC(=O)Nc1ncc(CN2CCC3(CCN(c4cc(C)nc5ncnn45)C3)C2)s1 (configuration not stated) | 100
